Data as given in patent publication US8952157B2, “Apoptosis-inducing agents for the treatment of cancer and immune and autoimmune diseases” (AbbVie Inc., priority 2008, dated 2015).

Target: GST-Bcl-2 (Homo sapiens (Human), UniProt P10415)
Test: Time Resolved-Fluorescence Resonance Energy Transfer (TR-FRET) Bcl-2 binding assay
Settings: not given
Summary of the method: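 Competition TR-FRET: GST-Bcl-2 with fluorescent Bak peptide probe and Tb-anti-GST antibody, compounds serially diluted from 50 μM (2× start, 10% DMSO).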

Chain of GST-Bcl-2 (P10415 whole entry): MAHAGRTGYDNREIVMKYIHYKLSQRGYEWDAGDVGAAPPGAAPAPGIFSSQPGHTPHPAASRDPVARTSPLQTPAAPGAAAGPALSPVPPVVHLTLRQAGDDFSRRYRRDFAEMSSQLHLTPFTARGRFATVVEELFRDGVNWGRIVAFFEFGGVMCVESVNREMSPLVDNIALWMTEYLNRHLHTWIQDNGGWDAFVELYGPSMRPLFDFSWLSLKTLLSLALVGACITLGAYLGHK

| Compound | Ki [nM] |
| --- | --- |
| CO[C@H]1CC[C@H](CNc2ccc(S(=O)(=O)NC(=O)c3ccc(N4CCN(CC5=C(c6ccc(Cl)cc6)CC(C)(C)CC5)CC4)cc3Oc3cnc(N)c(Br)c3)cc2[N+](=O)[O-])CC1 [Example 367, Trans-2-[(6-amino-5-bromopyridin-3-yl)oxy]-4-(4-{[2-(4-chlorophenyl)-4,4-dimethylcyclohex-1-en-1-yl]methyl}piperazin-1-yl)-N-[(4-{[(4-methoxycyclohexyl)methyl]amino}-3-nitrophenyl)sulfonyl]benzamide] | 0.012 |

Same assay, conditions: GST-Bcl-2 1 nM, F-Bak peptide probe 100 nM, Tb-anti-GST antibody 1 nM; Ki by Wang's equation

| Compound | Ki [nM] |
| --- | --- |
| CN(C)CCCc1c[nH]c2cccc(Oc3cc(N4CCN(CC5=C(c6ccc(Cl)cc6)CC(C)(C)CC5)CC4)ccc3C(=O)NS(=O)(=O)c3ccc(NN4CCN(C)CC4)c([N+](=O)[O-])c3)c12 [Example 340, 4-(4-{[2-(4-chlorophenyl)-4,4-dimethylcyclohex-1-en-1-yl]methyl}piperazin-1-yl)-2-({3-[3-(dimethylamino)propyl]-1H-indol-4-yl}oxy)-N-({4-[(4-methylpiperazin-1-yl)amino]-3-nitrophenyl}sulfonyl)benzamide] | 0.385 |
| COc1cccc(Oc2cc(N3CCN(Cc4ccccc4-c4ccc(Cl)cc4)CC3)ccc2C(=O)NS(=O)(=O)c2ccc(NCC3CCOCC3)c([N+](=O)[O-])c2)c1 [Example 20, 4-(4-((4′-chloro-1,1′-biphenyl-2-yl)methyl)piperazin-1-yl)-2-(3-methoxyphenoxy)-N-((3-nitro-4-((tetrahydro-2H-pyran-4-ylmethyl)amino)phenyl)sulfonyl)benzamide] | 3.96 |
| CC1(C)CCC(CN2CCN(c3ccc(C(=O)NS(=O)(=O)c4ccc(NCCCN5CCOCC5)c([N+](=O)[O-])c4)c(Oc4cccc(Cl)c4)c3)CC2)=C(c2ccc(Cl)cc2)C1 [Example 128, 2-(3-chlorophenoxy)-4-(4-{[2-(4-chlorophenyl)-4,4-dimethylcyclohex-1-en-1-yl]methyl}piperazin-1-yl)-N-({4-[(3-morpholin-4-ylpropyl)amino]-3-nitrophenyl}sulfonyl)benzamide] | 0.064 |
| CN(C)Cc1ccc(Oc2cc(N3CCN(Cc4ccccc4-c4ccc(Cl)cc4)CC3)ccc2C(=O)NS(=O)(=O)c2ccc(NCC3CCOCC3)c([N+](=O)[O-])c2)cc1 [Example 75, 4-(4-((4′-chloro-1,1′-biphenyl-2-yl)methyl)piperazin-1-yl)-2-(4-((dimethylamino)methyl)phenoxy)-N-((3-nitro-4-((tetrahydro-2H-pyran-4-ylmethyl)amino)phenyl)sulfonyl)benzamide] | 76.8 |
| CC1(C)CCC(CN2CCN(c3ccc(C(=O)NS(=O)(=O)c4cnc(OCCN5CCOCC5)c(C#N)c4)c(Oc4cc5cc[nH]c5cc4F)c3)CC2)=C(c2ccc(Cl)cc2)C1 [Example 310, 4-(4-{[2-(4-chlorophenyl)-4,4-dimethylcyclohex-1-en-1-yl]methyl}piperazin-1-yl)-N-{[5-cyano-6-(2-morpholin-4-ylethoxy)pyridin-3-yl]sulfonyl}-2-[(6-fluoro-1H-indol-5-yl)oxy]benzamide] | 0.155 |
| Nc1ncc(Oc2cc(N3CCN(CC4=C(c5ccc(Cl)cc5)CCC5(CCN(C(CF)CF)CC5)C4)CC3)ccc2C(=O)NS(=O)(=O)c2ccc(NCC3CCOCC3)c([N+](=O)[O-])c2)cc1Cl [Example 391, 2-[(6-amino-5-chloropyridin-3-yl)oxy]-4-[4-({9-(4-chlorophenyl)-3-[2-fluoro-1-(fluoromethyl)ethyl]-3-azaspiro[5.5]undec-8-en-8-yl}methyl)piperazin-1-yl]-N-({3-nitro-4-[(tetrahydro-2H-pyran-4-ylmethyl)amino]phenyl}sulfonyl)benzamide] | < 0.01 |
| CC1(C)CCC(CN2CCN(c3ccc(C(=O)NS(=O)(=O)c4ccc(OCC#CCN5CCOCC5)c([N+](=O)[O-])c4)c(Oc4cc5cc[nH]c5cc4F)c3)CC2)=C(c2ccc(Cl)cc2)C1 [Example 317, 4-(4-{[2-(4-chlorophenyl)-4,4-dimethylcyclohex-1-en-1-yl]methyl}piperazin-1-yl)-2-[(6-fluoro-1H-indol-5-yl)oxy]-N-({4-[(4-morpholin-4-ylbut-2-ynyl)oxy]-3-nitrophenyl}sulfonyl)benzamide] | 0.205 |
| CC1(C)CC(c2ccc(Cl)cc2)=C(CN2CCN(c3ccc(C(=O)NS(=O)(=O)c4cnc(OCC5CCOCC5)c(C#N)c4)c(Oc4cc5cc[nH]c5cc4F)c3)CC2)CO1 [Example 298, 4-(4-{[4-(4-chlorophenyl)-6,6-dimethyl-5,6-dihydro-2H-pyran-3-yl]methyl}piperazin-1-yl)-N-{[5-cyano-6-(tetrahydro-2H-pyran-4-ylmethoxy)pyridin-3-yl]sulfonyl}-2-[(6-fluoro-1H-indol-5-yl)oxy]benzamide] | 0.054 |
| CN1CCN(Nc2ccc(S(=O)(=O)NC(=O)c3ccc(N4CCN(CC5=C(c6ccc(Cl)cc6)CC(C)(C)CC5)CC4)cc3Oc3cc4cc[nH]c4cc3Cl)cc2[N+](=O)[O-])CC1 [Example 244, 2-[(6-chloro-1H-indol-5-yl)oxy]-4-(4-{[2-(4-chlorophenyl)-4,4-dimethylcyclohex-1-en-1-yl]methyl}piperazin-1-yl)-N-({4-[(4-methylpiperazin-1-yl)amino]-3-nitrophenyl}sulfonyl)benzamide] | 1.73 |
| CC1(C)CCC(CN2CCN(c3ccc(C(=O)NS(=O)(=O)c4ccc(NCC5CN(C6CC6)CCO5)c([N+](=O)[O-])c4)c(Oc4cnc(N)c(Cl)c4)c3)CC2)=C(c2ccc(Cl)cc2)C1 (centres unmarked) [Example 369, 2-[(6-amino-5-chloropyridin-3-yl)oxy]-4-(4-{[2-(4-chlorophenyl)-4,4-dimethylcyclohex-1-en-1-yl]methyl}piperazin-1-yl)-N-[(4-{[(4-cyclopropylmorpholin-2-yl)methyl]amino}-3-nitrophenyl)sulfonyl]benzamide] | 0.014 |
| COc1ccc(Cn2nnc3c(Oc4cc(N5CCN(CC6=C(c7ccc(Cl)cc7)CC(C)(C)CC6)CC5)ccc4C(=O)NS(=O)(=O)c4ccc(NCC5CCOCC5)c([N+](=O)[O-])c4)cccc32)cc1 [Example 342, 4-(4-{[2-(4-chlorophenyl)-4,4-dimethylcyclohex-1-en-1-yl]methyl}piperazin-1-yl)-2-{[1-(4-methoxybenzyl)-1H-1,2,3-benzotriazol-4-yl]oxy}-N-({3-nitro-4-[(tetrahydro-2H-pyran-4-ylmethyl)amino]phenyl}sulfonyl)benzamide] | 3.34 |
| CN1CCC(Nc2ccc(S(=O)(=O)NC(=O)c3ccc(N4CCN(CC5=C(c6ccc(Cl)cc6)CC(C)(C)OC5)CC4)cc3Oc3cccc(I)c3)cc2[N+](=O)[O-])CC1 [Example 161, 4-(4-{[4-(4-chlorophenyl)-6,6-dimethyl-5,6-dihydro-2H-pyran-3-yl]methyl}piperazin-1-yl)-2-(3-iodophenoxy)-N-({4-[(1-methylpiperidin-4-yl)amino]-3-nitrophenyl}sulfonyl)benzamide] | 0.031 |
| CC1(C)CCC(CN2CCN(c3ccc(C(=O)NS(=O)(=O)c4ccc(NCC5CCOC5)c([N+](=O)[O-])c4)c(Oc4cnc(N)c(Cl)c4)c3)CC2)=C(c2ccc(Cl)cc2)C1 (centres unmarked) [Example 389, 2-[(6-amino-5-chloropyridin-3-yl)oxy]-4-(4-{[2-(4-chlorophenyl)-4,4-dimethylcyclohex-1-en-1-yl]methyl}piperazin-1-yl)-N-({3-nitro-4-[(tetrahydrofuran-3-ylmethyl)amino]phenyl}sulfonyl)benzamide] | < 0.01 |
